Experimental data as given in patent US10588317B2, “Isoxazoline-substituted benzamides and analogues as insecticides” (priority 2015, dated 2020).

Columns and labels:
Format in all cases: in vivo
[1] = tested on: Diabrotica balteata; assay: Diabrotica balteata (corn root worm), sprayed maize sprouts; conditions: 96 h, application rate 200 ppm, L2 larvae, 4 days after infestation, read-out: effect in at least one of the two categories (mortality or growth inhibition)
Outline: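 Maize sprouts on agar sprayed with aqueous dilutions of DMSO stocks, dried, then infested with L2 larvae (6–10 per well). Mortality and growth inhibition scored against untreated controls 4 days after infestation, at 200 ppm application rate.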

[2] = tested on: Euschistus heros; assay: Euschistus heros (neotropical brown stink bug), sprayed soybean leaves; conditions: 120 h, application rate 200 ppm, N2 nymphs, 5 days after infestation, read-out: effect in at least one of the two categories (mortality or growth inhibition)
Outline: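 Soybean leaves on agar sprayed with aqueous dilutions of DMSO stocks, dried, then infested with N2 nymphs. Mortality and growth inhibition scored against untreated samples 5 days after infestation; application rate 200 ppm.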

[3] = tested on: Spodoptera littoralis; assay: Spodoptera littoralis (Egyptian cotton leaf worm), uptake by lettuce roots from agar; conditions: 144 h, read-out: effect in at least one of the three categories (mortality, anti-feeding, or growth inhibition)
Outline: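 Compound from 10'000 ppm DMSO stocks was mixed into agar, and lettuce grew on it for 7 days to take it up via roots. Cut leaves were infested with Spodoptera eggs; mortality, anti-feedant effect and growth inhibition scored 6 days later versus untreated samples.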

[4] = tested on: Thrips tabaci; assay: Thrips tabaci (onion thrips): feeding/contact activity; conditions: 144 h, application rate 200 ppm, Thrips population of mixed ages, 6 days after infestation, read-out: mortality
Procedure: (§1) Sunflower leaf discs were placed on agar in 24-well microtiter plates and sprayed with aqueous test solutions prepared from 10'000 ppm DMSO stock solutions. After drying the leaf discs were infested with a Thrips population of mixed ages. The samples were assessed for mortality 6 days after infestation.

[5] = tested on: Tetranychus urticae; assay: Tetranychus urticae (two-spotted spider mite): feeding/contact activity; conditions: 192 h, application rate 200 ppm, mixed population (mobile stages), 8 days after infestation, read-out: mortality
Procedure: as §1, with “Bean” for “Sunflower”, “discs” for “discs were placed”, “were” for “and”, “mite” for “Thrips”, “on mixed population (mobile stages) 8” for “6”

[6] = tested on: Plutella xylostella; assay: Plutella xylostella (diamond back moth), artificial diet; conditions: 120 h, application rate 200 ppm, L2 larvae, 5 days after infestation, read-out: effect in at least one of the two categories (mortality or growth inhibition)
Outline: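 Artificial diet in 24-well plates treated with aqueous test solutions made from 10'000 ppm DMSO stocks, dried, then infested with L2 larvae (10 to 15 per well). Mortality and growth inhibition scored against untreated samples 5 days after infestation; activity cut-off at least 80% in either category at 200 ppm.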

[7] = tested on: Myzus persicae; assay: Myzus persicae (green peach aphid): feeding/contact activity; conditions: 144 h, application rate 200 ppm, aphid population of mixed ages, 6 days after infestation, read-out: mortality
Procedure: Sunflower leaf discs were placed onto agar in a 24-well microtiter plate and sprayed with aqueous test solutions prepared from 10'000 ppm DMSO stock solutions. After drying, the leaf discs were infested with an aphid population of mixed ages. The samples were assessed for mortality 6 days after infestation.

[8] = tested on: Spodoptera littoralis; assay: Spodoptera littoralis (Egyptian cotton leaf worm), sprayed cotton leaf discs; conditions: foliar, 72 h, application rate 200 ppm, L1 larvae, 3 days after infestation, read-out: control (mortality, anti-feeding effect, growth inhibition)
Outline: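 Cotton leaf discs on agar sprayed with aqueous test solutions made from 10'000 ppm DMSO stock; after drying, infested with five L1 larvae. Mortality, anti-feeding and growth inhibition scored versus untreated samples 3 days after infestation; control counted when any category exceeds untreated.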

CCNS(=O)(=O)N1C[C@@H](NC(=O)c2ccc(C3=NO[C@@](c4cc(Cl)c(Cl)c(Cl)c4)(C(F)(F)F)C3)cc2C)CO1 [Compound A136, N-[(4R)-2-(ethylsulfamoyl)isoxazolidin-4-yl]-2-methyl-4-[(5S)-5-(3,4,5-trichlorophenyl)-5-(trifluoromethyl)-4H-isoxazol-3-yl]benzamide]
≥ 80%: percent effect (mortality or growth inhibition) at 200 ppm [1] | percent effect (mortality or growth inhibition) at 200 ppm [2] | percent control (mortality, anti-feedant effect or growth inhibition) at 12.5 ppm [3] | mortality at 200 ppm [4] | mortality at 200 ppm [5] | percent effect (mortality or growth inhibition) at 200 ppm [6] | mortality at 200 ppm [7] | mortality at 200 ppm [8]

CNS(=O)(=O)N1C[C@@H](NC(=O)c2ccc(C3=NO[C@@](c4cc(Cl)c(F)c(Cl)c4)(C(F)(F)F)C3)cc2C)CO1 [Compound A137, 4-[(5S)-5-(3,5-dichloro-4-fluoro-phenyl)-5-(trifluoromethyl)-4H-isoxazol-3-yl]-2-methyl-N-[(4R)-2-(methylsulfamoyl)isoxazolidin-4-yl]benzamide]
≥ 80%: percent effect (mortality or growth inhibition) at 200 ppm [1] | percent effect (mortality or growth inhibition) at 200 ppm [2] | percent control (mortality, anti-feedant effect or growth inhibition) at 12.5 ppm [3] | mortality at 200 ppm [4] | mortality at 200 ppm [5] | percent effect (mortality or growth inhibition) at 200 ppm [6] | mortality at 200 ppm [7] | mortality at 200 ppm [8]

CNS(=O)(=O)N1C[C@@H](NC(=O)c2ccc(C3=NO[C@@](c4cc(Cl)cc(C(F)(F)F)c4)(C(F)(F)F)C3)cc2C)CO1 [Compound A138]
≥ 80%: percent effect (mortality or growth inhibition) at 200 ppm [1] | percent effect (mortality or growth inhibition) at 200 ppm [2] | percent control (mortality, anti-feedant effect or growth inhibition) at 12.5 ppm [3] | mortality at 200 ppm [4] | mortality at 200 ppm [5] | percent effect (mortality or growth inhibition) at 200 ppm [6] | mortality at 200 ppm [7] | mortality at 200 ppm [8]

CNS(=O)(=O)N1C[C@@H](NC(=O)c2ccc(C3=NO[C@@](c4cc(Cl)cc(Cl)c4)(C(F)(F)F)C3)cc2C)CO1 [Compound A139, 4-[(5S)-5-(3,5-dichlorophenyl)-5-(trifluoromethyl)-4H-isoxazol-3-yl]-2-methyl-N-[(4R)-2-(methylsulfamoyl)isoxazolidin-4-yl]benzamide]
≥ 80%: percent effect (mortality or growth inhibition) at 200 ppm [1] | percent effect (mortality or growth inhibition) at 200 ppm [2] | percent control (mortality, anti-feedant effect or growth inhibition) at 12.5 ppm [3] | mortality at 200 ppm [4] | mortality at 200 ppm [5] | percent effect (mortality or growth inhibition) at 200 ppm [6] | mortality at 200 ppm [7] | mortality at 200 ppm [8]

CCN(C)S(=O)(=O)N1C[C@@H](NC(=O)c2ccc(C3=NO[C@@](c4cc(Cl)c(F)c(Cl)c4)(C(F)(F)F)C3)cc2C)CO1 [Compound A140, 4-[(5S)-5-(3,5-dichloro-4-fluoro-phenyl)-5-(trifluoromethyl)-4H-isoxazol-3-yl]-N-[(4R)-2-[ethyl(methyl)sulfamoyl]isoxazolidin-4-yl]-2-methyl-benzamide]
≥ 80%: percent effect (mortality or growth inhibition) at 200 ppm [1] | percent effect (mortality or growth inhibition) at 200 ppm [2] | percent control (mortality, anti-feedant effect or growth inhibition) at 12.5 ppm [3] | mortality at 200 ppm [4] | mortality at 200 ppm [5] | percent effect (mortality or growth inhibition) at 200 ppm [6] | mortality at 200 ppm [7] | mortality at 200 ppm [8]

CCN(C)S(=O)(=O)N1C[C@@H](NC(=O)c2ccc(C3=NO[C@@](c4cc(Cl)cc(C(F)(F)F)c4)(C(F)(F)F)C3)cc2C)CO1 [Compound A141]
≥ 80%: percent effect (mortality or growth inhibition) at 200 ppm [1] | percent effect (mortality or growth inhibition) at 200 ppm [2] | percent control (mortality, anti-feedant effect or growth inhibition) at 12.5 ppm [3] | mortality at 200 ppm [4] | mortality at 200 ppm [5] | percent effect (mortality or growth inhibition) at 200 ppm [6] | mortality at 200 ppm [7] | mortality at 200 ppm [8]

CCN(C)S(=O)(=O)N1C[C@@H](NC(=O)c2ccc(C3=NO[C@@](c4cc(Cl)cc(Cl)c4)(C(F)(F)F)C3)cc2C)CO1 [Compound A142]
≥ 80%: percent effect (mortality or growth inhibition) at 200 ppm [1] | percent effect (mortality or growth inhibition) at 200 ppm [2] | percent control (mortality, anti-feedant effect or growth inhibition) at 12.5 ppm [3] | mortality at 200 ppm [4] | mortality at 200 ppm [5] | percent effect (mortality or growth inhibition) at 200 ppm [6] | mortality at 200 ppm [7] | mortality at 200 ppm [8]

CS(=O)(=O)N1C[C@@H](NC(=O)c2ccc(C3=NO[C@@](c4cc(Cl)c(F)c(Cl)c4)(C(F)(F)F)C3)cc2Cl)CO1 [Compound A144, 2-chloro-4-[(5S)-5-(3,5-dichloro-4-fluoro-phenyl)-5-(trifluoromethyl)-4H-isoxazol-3-yl]-N-[(4R)-2-methylsulfonylisoxazolidin-4-yl]benzamide]
≥ 80%: percent effect (mortality or growth inhibition) at 200 ppm [1] | percent effect (mortality or growth inhibition) at 200 ppm [2] | percent control (mortality, anti-feedant effect or growth inhibition) at 12.5 ppm [3] | mortality at 200 ppm [4] | mortality at 200 ppm [5] | percent effect (mortality or growth inhibition) at 200 ppm [6] | mortality at 200 ppm [7] | mortality at 200 ppm [8]

CS(=O)(=O)N1C[C@@H](NC(=O)c2ccc(C3=NO[C@@](c4cc(Cl)c(Cl)c(Cl)c4)(C(F)(F)F)C3)cc2Cl)CO1 [Compound A145]
≥ 80%: percent effect (mortality or growth inhibition) at 200 ppm [1] | percent effect (mortality or growth inhibition) at 200 ppm [2] | percent control (mortality, anti-feedant effect or growth inhibition) at 12.5 ppm [3] | mortality at 200 ppm [4] | mortality at 200 ppm [5] | percent effect (mortality or growth inhibition) at 200 ppm [6] | mortality at 200 ppm [7] | mortality at 200 ppm [8]

CCS(=O)(=O)N1C[C@@H](NC(=O)c2ccc(C3=NO[C@@](c4cc(Cl)c(F)c(Cl)c4)(C(F)(F)F)C3)cc2Cl)CO1 [Compound A146]
≥ 80%: percent effect (mortality or growth inhibition) at 200 ppm [1] | percent effect (mortality or growth inhibition) at 200 ppm [2] | percent control (mortality, anti-feedant effect or growth inhibition) at 12.5 ppm [3] | mortality at 200 ppm [4] | mortality at 200 ppm [5] | percent effect (mortality or growth inhibition) at 200 ppm [6] | mortality at 200 ppm [7] | mortality at 200 ppm [8]

CCS(=O)(=O)N1C[C@@H](NC(=O)c2ccc(C3=NO[C@@](c4cc(Cl)c(Cl)c(Cl)c4)(C(F)(F)F)C3)cc2Cl)CO1 [Compound A147, 2-chloro-N-[(4R)-2-ethylsulfonylisoxazolidin-4-yl]-4-[(5S)-5-(3,4,5-trichlorophenyl)-5-(trifluoromethyl)-4H-isoxazol-3-yl]benzamide]
≥ 80%: percent effect (mortality or growth inhibition) at 200 ppm [1] | percent effect (mortality or growth inhibition) at 200 ppm [2] | percent control (mortality, anti-feedant effect or growth inhibition) at 12.5 ppm [3] | mortality at 200 ppm [4] | mortality at 200 ppm [5] | percent effect (mortality or growth inhibition) at 200 ppm [6] | mortality at 200 ppm [7] | mortality at 200 ppm [8]

Cc1cc(C2=NO[C@@](c3cc(Cl)cc(Cl)c3)(C(F)(F)F)C2)ccc1C(=O)N[C@H]1CON(S(=O)(=O)NC2CC2)C1 [Compound A155]
≥ 80%: percent effect (mortality or growth inhibition) at 200 ppm [1] | percent effect (mortality or growth inhibition) at 200 ppm [2] | percent control (mortality, anti-feedant effect or growth inhibition) at 12.5 ppm [3] | mortality at 200 ppm [4] | mortality at 200 ppm [5] | percent effect (mortality or growth inhibition) at 200 ppm [6] | mortality at 200 ppm [7] | mortality at 200 ppm [8]

C#CCNS(=O)(=O)N1C[C@@H](NC(=O)c2ccc(C3=NO[C@@](c4cc(Cl)cc(Cl)c4)(C(F)(F)F)C3)cc2Cl)CO1 [Compound A158]
≥ 80%: percent effect (mortality or growth inhibition) at 200 ppm [1] | percent effect (mortality or growth inhibition) at 200 ppm [2] | percent control (mortality, anti-feedant effect or growth inhibition) at 12.5 ppm [3] | mortality at 200 ppm [4] | mortality at 200 ppm [5] | percent effect (mortality or growth inhibition) at 200 ppm [6] | mortality at 200 ppm [7] | mortality at 200 ppm [8]

Cc1cc(C2=NO[C@@](c3cccc(C(F)(F)F)c3)(C(F)(F)F)C2)ccc1C(=O)N[C@H]1CON(S(C)(=O)=O)C1 [Compound A159]
≥ 80%: percent effect (mortality or growth inhibition) at 200 ppm [1] | percent effect (mortality or growth inhibition) at 200 ppm [2] | percent effect (mortality, anti-feeding or growth inhibition) at 12.5 ppm ([3]; test rate 12.5 ppm, eggs, 6 days after infestation) | mortality at 200 ppm [4] | mortality at 200 ppm [5] | percent effect (mortality or growth inhibition) at 200 ppm [6] | mortality at 200 ppm [7] | mortality at 200 ppm [8]
